Common to all, as to experiment: NAGS activity assay, purified enzyme
Common to all, as to assay type: biochemical

Assay [1] deals with T1, NAGS from X. laevis (African clawed frog) (Xenopus laevis, UniProt A0A8J1M136).
T1 construct: gene LOC108702180
T1 sequence (A0A8J1M136 31-491): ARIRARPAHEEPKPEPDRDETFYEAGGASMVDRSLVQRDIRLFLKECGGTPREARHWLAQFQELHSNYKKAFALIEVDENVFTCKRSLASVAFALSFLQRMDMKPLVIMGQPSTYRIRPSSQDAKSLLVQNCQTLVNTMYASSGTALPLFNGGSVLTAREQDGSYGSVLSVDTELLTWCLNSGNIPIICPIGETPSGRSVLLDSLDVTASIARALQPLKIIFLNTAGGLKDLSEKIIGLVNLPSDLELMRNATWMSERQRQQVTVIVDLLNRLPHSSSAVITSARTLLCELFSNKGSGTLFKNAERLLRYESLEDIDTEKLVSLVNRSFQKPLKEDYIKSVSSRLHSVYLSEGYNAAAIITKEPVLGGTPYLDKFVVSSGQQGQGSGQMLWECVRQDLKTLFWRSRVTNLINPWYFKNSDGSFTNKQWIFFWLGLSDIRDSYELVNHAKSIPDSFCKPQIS
Particulars: 50 mM glutamate, 12.5 mM AcCoA, room temperature; allosteric activator.

The target in assay [2] is T2, pufferfish NAGS (Takifugu rubripes, UniProt H2T4D9).
T2 sequence (H2T4D9 51-529): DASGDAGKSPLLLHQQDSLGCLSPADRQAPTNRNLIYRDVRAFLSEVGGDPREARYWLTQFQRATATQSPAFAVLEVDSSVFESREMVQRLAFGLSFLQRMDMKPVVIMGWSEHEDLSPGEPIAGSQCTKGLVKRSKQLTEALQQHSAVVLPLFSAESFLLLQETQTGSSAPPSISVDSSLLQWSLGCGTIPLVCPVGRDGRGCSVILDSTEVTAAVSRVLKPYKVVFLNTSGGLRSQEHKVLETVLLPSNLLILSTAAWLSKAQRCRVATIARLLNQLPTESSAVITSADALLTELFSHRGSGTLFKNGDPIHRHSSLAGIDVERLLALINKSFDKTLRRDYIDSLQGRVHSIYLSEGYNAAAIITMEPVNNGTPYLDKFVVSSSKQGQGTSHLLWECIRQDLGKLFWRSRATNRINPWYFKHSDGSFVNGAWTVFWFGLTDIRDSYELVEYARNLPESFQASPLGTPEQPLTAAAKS
Particulars: read-out: % inhibition at 1 mM.

Assay [3] concerns the target T3, NAGS from X. tropicalis (Western clawed frog) (Xenopus tropicalis, UniProt F6X3J6).
T3 sequence (F6X3J6 39-491): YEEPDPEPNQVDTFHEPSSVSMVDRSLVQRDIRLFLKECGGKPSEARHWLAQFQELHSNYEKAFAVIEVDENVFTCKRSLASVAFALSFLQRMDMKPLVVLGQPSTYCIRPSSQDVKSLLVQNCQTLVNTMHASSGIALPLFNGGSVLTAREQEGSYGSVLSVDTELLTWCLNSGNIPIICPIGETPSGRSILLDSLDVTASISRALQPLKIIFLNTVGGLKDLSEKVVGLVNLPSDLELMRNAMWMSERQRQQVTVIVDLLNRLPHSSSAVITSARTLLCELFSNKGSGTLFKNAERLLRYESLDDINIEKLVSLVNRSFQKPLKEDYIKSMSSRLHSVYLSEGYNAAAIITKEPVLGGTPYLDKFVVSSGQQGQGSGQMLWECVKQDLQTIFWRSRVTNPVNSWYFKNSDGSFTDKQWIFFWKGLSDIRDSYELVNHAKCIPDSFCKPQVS
Particulars: 50 mM glutamate, 12.5 mM AcCoA, room temperature; allosteric activator.

The target of assay [4] is T4, zebrafish NAGS (Danio rerio, UniProt E7FCP8).
T4 sequence (E7FCP8 40-527): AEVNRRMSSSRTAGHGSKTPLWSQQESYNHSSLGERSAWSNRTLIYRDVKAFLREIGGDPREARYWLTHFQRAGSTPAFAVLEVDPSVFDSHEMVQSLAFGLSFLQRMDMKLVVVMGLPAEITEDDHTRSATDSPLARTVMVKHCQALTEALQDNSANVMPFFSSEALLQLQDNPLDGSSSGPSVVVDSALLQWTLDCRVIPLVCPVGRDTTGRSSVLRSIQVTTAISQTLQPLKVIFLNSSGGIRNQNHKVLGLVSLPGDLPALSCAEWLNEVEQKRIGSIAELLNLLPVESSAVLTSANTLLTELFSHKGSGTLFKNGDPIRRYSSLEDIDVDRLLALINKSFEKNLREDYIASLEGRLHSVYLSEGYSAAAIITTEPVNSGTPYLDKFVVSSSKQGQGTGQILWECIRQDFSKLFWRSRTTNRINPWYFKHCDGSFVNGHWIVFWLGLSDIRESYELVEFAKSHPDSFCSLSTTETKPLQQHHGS
Particulars: read-out: % inhibition at 1 mM.

By inhibition is commonly meant the percentage by which the read-out fell short of the control. As to `N=C(N)NCCC[C@H](N)C(=O)O` [L-arginine], the figures for the “% activation at 1 mM” value in assay [1] and in assay [3] were 20% and 38%, respectively. Further, the results for the inhibition at 1000 µM in assay [2] and in assay [4] were about 20% and about 50%, respectively.

The values are drawn from PMC2566978, “Inversion of allosteric effect of arginine on N-acetylglutamate synthase, a molecular marker for evolution of tetrapods” (BMC Biochemistry, 2008).
